Assays:
[1] = biological target: muscarinic receptors (Oxo-M binding receptor, forebrain synapse membranes); assay: [3H]-oxotremorine-M ([3H]-Oxo-M) affinity screening test; details: inhibition of 50% of specific binding of [3H]-Oxo-M (5 nM) to the receptor; rat brain membranes
Experimental: [^3H]-oxotremorine-M ([^3H]-Oxo-M) Affinity Screening Test
The experimental principle was the same as [^3H]-NMS affinity screening test. The present experiment was carried out in order to identify the pharmacological functions (an agonist or antagonist) of the compounds showing high affinity in [3H]-NMS affinity screening test. The functions of the compounds may be determined by carrying out both of [^3H]-NMS and [^3H]-Oxo-M (oxotremorine) affinity screening tests to measure their respective IC50 values and calculating ratios (NMS/Oxo-M) of the measured IC50 values. Generally, the compounds are evaluated as muscarinic receptor full agonists when the ratio is greater than 180, as partial agonists when the ratio is from 14 to 130, and as antagonists when the ratio is from 0.2 to 1.9.
Preparation of Brain Membrane
Synapse membranes for binding assay of Oxo-M binding receptor of muscarinic receptors were directly prepared and used in the laboratory as follows: male Sparague-Dawley rats (supplied from Laboratory Animal Center of Korea Research Institute of Chemical Technology, 250 to 300 g) were sacrificed by decapitation. The brain tissues were immediately removed and the forebrain was obtained, which was sectioned into small pieces. After adding 10-fold amount of ice-cooled solution of sucrose (0.32M), the sectioned forebrain was homogenized using Teflon-glass homogenizer (Contorque, Eberbach) at 10 strokes and 500 rpm, centrifuged at 1000 g for 15 minutes, and then the supernatant was again centrifuged at 17000 g for 20 minutes. The pellet was stored at −20° C. and then used.
Before the pellet was used at this assay, it was suspended in 10 mL of […] HEPES buffer (pH 7.4), again centrifuged at 17000 g for 15 minutes and then washed. Finally, the washed membrane was diluted in ice-cooled 20 mM HEPES buffer (pH 7.4) to the final concentration of 1:100 (wet wt/v) and used at this assay. All test samples were tested four times, and 20 mM HEPES buffer (pH 7.4) was used as a buffer for screening test. […] The radioactivity of the receptor binding ligands was detected by Liquid Scintillation Counter (MicroBeta Plus, Wallac, Finland).
The test drugs were diluted sequentially for the required concentrations by dissolving them in dimethylsulfoxide (DMSO) and used in the test. […] From the saturated affinity screening test, Kd and Bmax values, and IC50 or Ki values of respective test drugs were calculated by observing the non-linear regression using prism (Graphpad software Inc., USA). […]
(§1) The following table 1 illustrates the affinity of representative compounds of the present invention for muscarinic receptors measured by binding of [^3H]-N-methyl scopolamine ([^3H]-NMS) and [^3H]-oxotremorine ([^3H]-Oxo-M) to cortex receptor of rats. […]

muscarinic receptors = assay: [3H]-N-methyl-scopolamine ([3H]-NMS) affinity screening test; design: species or system rat; details: inhibition of 50% of specific binding of [3H]-NMS to the receptor; cortex receptor of rats
Text: [^3H]-N-methyl-scopolamine ([^3H]-NMS) Affinity Screening Test
In order to exclude the interaction between subtypes, human recombinant muscarinic receptor subtypes 1, 2 and 3 expressed in CHO cells (M1, M2 and M3, Biosignal, Canada) were purchased and used as receptor sources. [^3H]-N-methyl-scopolamine (NEN, NET-636) was used as radioisotope labeled ligands, and atropine was used for the measurement of the non-specific binding ability. About 10 kinds of experimental apparatuses including Liquid Scintillation Counter (MicroBeta 1450 plus), Inotech cell harvester (96-well) were used.
In order to determine the effect of each compound on M1 and M2 receptors, the compounds were reacted with the receptors using radioisotope labeled ligands. After the reaction, the excess unbound ligands were removed by filtering with a glass fiber filter. The amount of radioisotopes remaining on the washed filter plate was then measured to quantify the binding reaction between the receptors and the ligands and, from the results, the affinity of the drugs for the receptors was determined.
The freeze-stored receptors at −70° C. were suspended in test buffer solutions and then the screening test (BioRad protein) was carried out to determine the optimum concentration of the proteins. Thereafter, 50 μL of hot-ligands and 10 μL of test drugs were added to 96-well plate and 100 μL of 50 mM TRIS buffer (pH 7.2) containing 10 mM MgCl2 and 1 mM EDTA was added as a test buffer. The final volume of the reaction was […]. The reaction was initiated by adding 100 μL of the diluted receptor suspension, and continued for 60 minutes on a shaking incubator at 27° C. This test for the test drugs was repeated four times. After 60 minutes, the reaction was terminated by adding cold TRIS buffer (0.5 mL, pH 7.4). The excess unbound radioisotopes were removed from the reaction mixture using Inotech cell harvester system. After washing the mixture, the radioactivity detected by the filter mat was measured using Liquid Scintillation Counter. As primary stage of the efficacy screening, the drugs at two concentrations (1 μM, 10 μM) were screened for their affinity for the receptors. As secondary stage, the drugs showing remarkable efficacies were determined at the lower concentrations. Finally, IC50 values were calculated at the gradient of 10 concentrations. […] From the saturation affinity screening test, Kd and Bmax values, and IC50 or Ki values of each test drugs were calculated by observing the non-linear regression using prism (Graphpad software Inc.,USA). […]
as §1

Row | Structure (SMILES) | IC50 [1] [nM] | IC50 (muscarinic receptors) [nM]
1 | COC(=O)C1=CCCN(C)C1 [Arecoline, reference compound] | 140 | 87100
2 | CN1CCC=C(C2=NOC(N3CCCC3=O)C2)C1 (centres unmarked) [Example 15, 1-[3-(1-methyl-1,2,5,6-tetrahydropyridin-3-yl)-4,5-dihydro-isoxazol-5-yl]-pyrrolidin-2-one] | 220 | 8310
3 | CN1CCC=C(C2=NOC(CN3CCCC3=O)C2)C1 (centres unmarked) [Example 18, 1-[3-(1-methyl-1,2,5,6-tetrahydro-pyridin-3-yl)-4,5-dihydro-isoxazol-5-yl-methyl]-pyrrolidin-2-one] | 30 | 180
4 | CN1CCC=C(c2cc(CN3CCCC3=O)on2)C1 [Example 23, 1-[3-(1-methyl-1,2,5,6-tetrahydro-pyridin-3-yl)-isoxazol-5-yl-methyl]-pyrrolidin-2-one] | 370 | 1490

— US6759419B2, “Pyrrolidinone derivatives, their preparation and pharmaceutical composition comprising the same” (Korea Institute of Science and Technology, priority 2001, dated 2004)
